Assay [1] addresses T1, TbINO1 (Trypanosoma brucei brucei, UniProt Q5QQ46).
T1 sequence (Q5QQ46 1-528): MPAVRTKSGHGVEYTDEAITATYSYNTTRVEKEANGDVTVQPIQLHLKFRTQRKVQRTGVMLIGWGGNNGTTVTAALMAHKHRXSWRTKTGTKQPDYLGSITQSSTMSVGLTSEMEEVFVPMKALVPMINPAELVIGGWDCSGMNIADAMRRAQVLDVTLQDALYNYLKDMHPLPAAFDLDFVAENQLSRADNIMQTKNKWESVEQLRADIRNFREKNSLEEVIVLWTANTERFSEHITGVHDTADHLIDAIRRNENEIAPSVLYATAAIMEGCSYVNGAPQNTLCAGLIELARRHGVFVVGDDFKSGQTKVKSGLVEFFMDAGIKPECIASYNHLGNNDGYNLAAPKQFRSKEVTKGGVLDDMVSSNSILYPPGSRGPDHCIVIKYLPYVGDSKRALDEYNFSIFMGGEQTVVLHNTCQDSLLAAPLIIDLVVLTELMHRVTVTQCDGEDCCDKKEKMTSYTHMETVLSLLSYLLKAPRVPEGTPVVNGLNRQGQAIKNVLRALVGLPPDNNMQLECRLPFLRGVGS
Description: biochemical. In kind it is binding. The note with it: for Tb Ino1 Tm Shift [˚C]: Supplementary Table 1, compound 1mM, mean ± SD from Boltzman curve fitting.

The subject of assay [2] is HeLa cells. The experiment in a line: cells. The note with it: for HeLa Cells Alamar Blue: Supplementary Table 1, compound 0.5 mM, percentage of controls, mean ± SD (n=3) or SE (n=2); for viability at 500 µM: 65 h. In a few lines: (§1)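 HeLa and A549 cells grown in DMEM with 10% FCS and 2 mM L-Glutamine were seeded at 2 × 10^4 cells/well. They were exposed to compounds for ~65 hours, then Alamar Blue was added for a further 5 hours to measure viability.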
Background: Resazurin is reduced to fluorescent resorufin, in cell work by metabolically active cells.

For assay [3], the system named is A549 cells. The experiment in a line: Cytotoxicity against A549 cells, Alamar Blue. It counts as cell-based. The settings on record: Supplementary Table 1, compound 0.5 mM, percentage of controls (n=1); for viability at 500 µM: Homo sapiens, A549, 65 h. In a few lines:
as §1

[4] abbreviates: read-out: Tb Ino1 Tm Shift [˚C].
Setting [5] is: Homo sapiens, HeLa, read-out: HeLa Cells Alamar Blue.
The mark [6] stands for this setting: Homo sapiens, HeLa, read-out: HeLa Cells Alamar Blue (% survival).

Where a name gives a salt, the structure may show the parent alone. Read-outs that look alike come from different tables or passages of the source.

For the molecule `C#CCN1CCS(=O)(=O)CC1` [compound 379, 4‐(Prop‐2‐ynyl)thiomorpholine 1,1‐dioxide], the “Tb Ino1 Tm Shift [˚C]” value in assay [1] worked out at 0.32 ± 0.08 °C. Moreover, the “HeLa Cells Alamar Blue” value in assay [2] is recorded as 95.6 ± 12.9 percentage of controls. Also, the “A549 Cells Alamar Blue” value in assay [3] is listed as 154 percentage of controls.
For the molecule `NC(=O)c1ccc(F)c(Cl)c1` [compound 380, 3‐chloro‐4‐fluorobenzamide], the ΔTm at 1000 µM in assay [1] (setting [4]) was 0.31 ± 0.06 °C. The viability at 500 µM was 92.2 ± 13.4% in assay [2] (setting [5]) and 95.9% in assay [3].
For `O=C(O)Cc1cccnc1` [compound 381, pyridin‐3‐ylacetic acid hydrochloride], in that order: 1.08 ± 0.05 °C, 99.2 ± 9.9% and 105%.
Consider `OCc1ccc(-c2ccco2)cc1` [compound 383, [4-(2-furyl)phenyl]methanol], for which, in assay [1] (read-out: TbIno1 Tm shift [°C]), the ΔTm at 1000 µM stood at 3.45 ± 0.09 °C. In addition, the figures for the viability at 500 µM in assay [2] (setting [5]), in assay [2] (setting [6]) and in assay [3] were 20 ± 10.6%, 20 ± 10.6% and 89.6%, respectively. In addition, the CC50 in assay [2] (Homo sapiens, HeLa, read-out: HeLa ED50) is 292 ± 31 µM.
As to `N#CCc1nc2ccccc2s1` [compound 387, 2‐(1,3‐benzothiazol‐2‐yl)acetonitrile], in assay [1] (setting [4]), the ΔTm at 1000 µM is 1.29 ± 0.14 °C. In addition, the figures for the viability at 500 µM in assay [2] (setting [5]) and in assay [3] were 86.4 ± 10.4% and 81%, respectively.
In the case of `CSc1ccc(C(=O)O)s1` [compound 389, 5‐(methylthio)thiophene‐2‐carboxylic acid], the “Tb Ino1 Tm Shift [˚C]” value in assay [1] was determined as 0.43 ± 0.05 °C. Also, the “HeLa Cells Alamar Blue” value in assay [2] was 104.2 ± 16.4 percentage of controls. Also, the “A549 Cells Alamar Blue” value in assay [3] was 125.1 percentage of controls.
For `NCc1ccc(C(F)(F)F)cc1` [compound 390, 4‐(trifluoromethyl)benzylamine], the ΔTm at 1000 µM in assay [1] (setting [4]) amounted to 0.38 ± 0.08 °C. Further, the viability at 500 µM in assay [2] (setting [5]) is 84.4 ± 6.8%; in assay [3], 136%.
As for `O=C(O)Cc1c[nH]c2ccccc12` [compound 391, 2-(1H-indol-3-yl)acetic acid], the ΔTm at 1000 µM in assay [1] (read-out: TbIno1 Tm shift [°C]) was determined as 1.67 ± 0.08 °C. Also, the viability at 500 µM in assay [2] (setting [5]) was 42.6 ± 6.4%; in assay [2] (setting [6]), 42.6 ± 6.4%; in assay [3], 134%.
As for `COC(=O)c1c[nH]c2ccccc12` [compound 392, methyl 1H‐indole‐3‐carboxylate], the ΔTm at 1000 µM in assay [1] (setting [4]) came out at 0.22 ± 0.06 °C. Further, the values for the viability at 500 µM in assay [2] (setting [5]) and in assay [3] were 110 ± 3.7% and 88.1%, respectively.
As to `Cn1ccc2cc(C(=O)O)ccc21` [compound 394, 1‐methyl‐1H‐indole‐5‐carboxylic acid], the ΔTm at 1000 µM in assay [1] (setting [4]) turned out to be 0 °C. The viability at 500 µM turned out to be 95 ± 12.2% in assay [2] (setting [5]) and 82% in assay [3].
As for `Cn1c(=O)cc(O)c2ccccc21` [compound 395, 4-hydroxy-1-methyl-1,2-dihydroquinolin-2-one], the ΔTm at 1000 µM in assay [1] (read-out: TbIno1 Tm shift [°C]) came out at 1.62 ± 0.03 °C. Moreover, the viability at 500 µM is 93 ± 0.3% in assay [2] (setting [5]), 93 ± 0.3% in assay [2] (setting [6]) and 174% in assay [3].
With `COC(=O)c1cccc2cc[nH]c12` [compound 396, methyl 1H‐indole‐7‐carboxylate], in assay [1] (setting [4]), the ΔTm at 1000 µM was found to be 0.12 ± 0.11 °C. In addition, the viability at 500 µM worked out at 36.5 ± 11.9% in assay [2] (setting [5]) and 164% in assay [3].
Take `Cn1ccc2c(C(=O)O)cccc21` [compound 399, 1‐methyl‐1H‐indole‐4‐carboxylic acid]: in assay [1] (setting [4]), the ΔTm at 1000 µM came to 0.63 ± 0.07 °C. Moreover, the viability at 500 µM stood at 99.3 ± 14.2% in assay [2] (setting [5]) and 123% in assay [3].
In the case of `CC(=O)Nc1ccc2c(c1)CCC2` [compound 400, N1‐(2,3‐dihydro‐1H‐inden‐5‐yl)acetamide], the ΔTm at 1000 µM in assay [1] (setting [4]) was 0.12 ± 0.07 °C. Also, the viability at 500 µM amounted to 23.9 ± 13.6% in assay [2] (setting [5]) and 99.3% in assay [3].
`CCOC(=O)C1CSCCN1` (stereo not shown) [compound 402, ethyl thiomorpholine‐3‐carboxylate]: the ΔTm at 1000 µM in assay [1] (setting [4]) turned out to be 0.45 ± 0.08 °C. Further, the viability at 500 µM in assay [2] (setting [5]) was 107 ± 18.3%; in assay [3], 95.2%.
Take `Nc1cccc(-c2cccs2)c1` [compound 403, 3‐(2‐thienyl)aniline]: the ΔTm at 1000 µM in assay [1] (setting [4]) stood at 0.04 ± 0.04 °C. The viability at 500 µM is 49.1 ± 15.7% in assay [2] (setting [5]) and 52.3% in assay [3].
